Measurements reported in US10040781B2, “Tank-binding kinase inhibitor compounds” (Gilead Sciences, Inc., priority 2014, dated 2018).

Key:
[1] = target: hJAK2 (Homo sapiens (Human), UniProt O60674); assay: hJAK2 LANCE TR-FRET enzymatic assay; type: biochemical; settings: read-out: JAK2 IC50
[2] = target: TBK1 (Homo sapiens (Human), UniProt Q9UHD2); assay: TBK1 TR-FRET enzymatic assay;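 also: phosphorylation of a biotinylated Ser/Thr peptide by purified full-length recombinant TBK1, read by TR-FRET after 240 min at 25 °C, IC50 is the geometric mean of at least four runs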
TBK1, sequence (Q9UHD2 whole entry): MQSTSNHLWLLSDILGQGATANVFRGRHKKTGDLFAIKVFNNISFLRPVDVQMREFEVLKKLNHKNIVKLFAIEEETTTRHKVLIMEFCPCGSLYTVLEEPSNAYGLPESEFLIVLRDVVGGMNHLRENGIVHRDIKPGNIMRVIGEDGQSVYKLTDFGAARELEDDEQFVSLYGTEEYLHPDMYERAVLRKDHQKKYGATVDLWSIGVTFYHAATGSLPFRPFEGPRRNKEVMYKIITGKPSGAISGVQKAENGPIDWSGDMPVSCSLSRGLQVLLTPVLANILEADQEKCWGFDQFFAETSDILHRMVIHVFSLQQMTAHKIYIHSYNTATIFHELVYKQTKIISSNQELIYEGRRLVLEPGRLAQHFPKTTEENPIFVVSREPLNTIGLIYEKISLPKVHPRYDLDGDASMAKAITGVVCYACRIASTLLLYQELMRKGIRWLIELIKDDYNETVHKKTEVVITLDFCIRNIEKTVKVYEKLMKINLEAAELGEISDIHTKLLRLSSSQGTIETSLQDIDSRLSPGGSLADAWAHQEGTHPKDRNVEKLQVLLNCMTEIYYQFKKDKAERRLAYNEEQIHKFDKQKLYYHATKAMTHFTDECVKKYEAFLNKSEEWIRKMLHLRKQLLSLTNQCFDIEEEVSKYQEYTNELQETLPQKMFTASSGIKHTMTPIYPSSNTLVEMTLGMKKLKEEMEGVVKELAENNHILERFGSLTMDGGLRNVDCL

hJAK2, sequence (O60674 whole entry): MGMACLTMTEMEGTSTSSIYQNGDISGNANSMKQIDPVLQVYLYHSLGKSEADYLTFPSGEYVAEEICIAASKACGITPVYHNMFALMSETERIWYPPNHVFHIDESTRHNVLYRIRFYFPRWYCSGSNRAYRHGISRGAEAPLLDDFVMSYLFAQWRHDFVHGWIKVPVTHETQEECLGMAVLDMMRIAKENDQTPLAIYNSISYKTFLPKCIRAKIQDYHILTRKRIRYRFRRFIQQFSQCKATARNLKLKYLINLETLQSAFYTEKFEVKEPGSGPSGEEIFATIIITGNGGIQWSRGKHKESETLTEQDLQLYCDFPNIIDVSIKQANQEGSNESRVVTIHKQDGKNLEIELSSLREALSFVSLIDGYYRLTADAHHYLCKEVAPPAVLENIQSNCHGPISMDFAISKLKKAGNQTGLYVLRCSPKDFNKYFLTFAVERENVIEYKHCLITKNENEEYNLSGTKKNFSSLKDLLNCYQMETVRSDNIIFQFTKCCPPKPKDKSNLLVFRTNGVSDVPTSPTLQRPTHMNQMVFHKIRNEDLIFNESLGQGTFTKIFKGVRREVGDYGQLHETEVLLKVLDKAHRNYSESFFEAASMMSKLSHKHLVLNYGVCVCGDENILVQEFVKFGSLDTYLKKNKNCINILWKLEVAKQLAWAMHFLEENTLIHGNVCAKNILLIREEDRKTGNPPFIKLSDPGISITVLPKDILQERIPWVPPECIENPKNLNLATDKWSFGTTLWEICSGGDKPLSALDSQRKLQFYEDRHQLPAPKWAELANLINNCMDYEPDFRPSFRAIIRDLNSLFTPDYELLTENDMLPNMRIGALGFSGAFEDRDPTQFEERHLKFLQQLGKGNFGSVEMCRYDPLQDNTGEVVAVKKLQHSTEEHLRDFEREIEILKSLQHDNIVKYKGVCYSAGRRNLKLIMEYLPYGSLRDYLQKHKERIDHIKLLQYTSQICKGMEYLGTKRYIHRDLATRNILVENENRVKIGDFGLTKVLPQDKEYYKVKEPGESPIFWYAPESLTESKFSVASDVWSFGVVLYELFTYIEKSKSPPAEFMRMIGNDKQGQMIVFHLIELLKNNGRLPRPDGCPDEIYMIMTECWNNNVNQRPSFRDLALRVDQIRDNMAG

| SMILES | IC50 [1] [nM] | IC50 [2] [nM] |
| --- | --- | --- |
| N#Cc1cc(-c2ncnc(Nc3ccc(C4CCNCC4)cc3)n2)ccc1O[C@H]1CCCC[C@H]1F (racemic) [Example 292, rac-2-(((1S,2R)-2-fluorocyclohexyl)oxy)-5-(4-((4-(piperidin-4-yl)phenyl)amino)-1,3,5-triazin-2-yl)benzonitrile] | – | 6 |
| COc1cc(Nc2ncnc(-c3ccc(OC4CCOCC4)c(C#N)c3)n2)ccc1N1CCN(C)CC1 [Example 4, 5-(4-((3-methoxy-4-(4-methylpiperazin-1-yl)phenyl)amino)-1,3,5-triazin-2-yl)-2-((tetrahydro-2H-pyran-4-yl)oxy)benzonitrile] | 53 | – |
| CN1CCN(c2ccc(Nc3ncnc(-c4ccc(OC5CCOCC5)c(C#N)c4)n3)cc2)CC1 [Example 12, 5-(4-((4-(4-methylpiperazin-1-yl)phenyl)amino)-1,3,5-triazin-2-yl)-2-((tetrahydro-2H-pyran-4-yl)oxy)benzonitrile] | 162 | – |
| C[C@H](O)C(=O)N1CC[C@@H](Oc2ccc(-c3ncnc(Nc4ccc(N5CCN(C6COC6)CC5)cc4)n3)cc2C#N)C1 [Example 88, 2-(((R)-1-((S)-2-hydroxypropanoyl)pyrrolidin-3-yl)oxy)-5-(4-((4-(4-(oxetan-3-yl)piperazin-1-yl)phenyl)amino)-1,3,5-triazin-2-yl)benzonitrile] | – | 26 |
| C[C@@H](O)C(=O)N1CC[C@@H](Oc2ccc(-c3ncnc(Nc4ccc(N5CCN(C6COC6)CC5)cc4)n3)cc2C#N)C1 [Example 91, 2-(((R)-1-((R)-2-hydroxypropanoyl)pyrrolidin-3-yl)oxy)-5-(4-((4-(4-(oxetan-3-yl)piperazin-1-yl)phenyl)amino)-1,3,5-triazin-2-yl)benzonitrile] | – | 145 |
| N#Cc1cc(-c2ncnc(Nc3ccc(N4CCN(C5COC5)CC4)cc3)n2)ccc1O[C@@H]1CN(C(=O)CO)C[C@@H]1F [Example 101, 2-(((3R,4S)-4-fluoro-1-(2-hydroxyacetyl)pyrrolidin-3-yl)oxy)-5-(4-((4-(4-(oxetan-3-yl)piperazin-1-yl)phenyl)amino)-1,3,5-triazin-2-yl)benzonitrile] | – | 14 |
| Cc1n[nH]c(C)c1C(=O)N1CC[C@H](Oc2ccc(-c3ncnc(Nc4ccc(N5CCN(C6COC6)CC5)cc4)n3)cc2C#N)[C@H](F)C1 [Example 135, 2-(((3R,4S)-1-(3,5-dimethyl-1H-pyrazole-4-carbonyl)-3-fluoropiperidin-4-yl)oxy)-5-(4-((4-(4-(oxetan-3-yl)piperazin-1-yl)phenyl)amino)-1,3,5-triazin-2-yl)benzonitrile] | 212 | – |
| N#Cc1cc(-c2ncnc(Nc3ccc(N4CCN(C5COC5)CC4)cc3)n2)ccc1OC1CCN(C(=O)c2ncc[nH]2)CC1(F)F (stereo not drawn) [Example 163, 2-((3,3-difluoro-1-(1H-imidazole-2-carbonyl)piperidin-4-yl)oxy)-5-(4-((4-(4-(oxetan-3-yl)piperazin-1-yl)phenyl)amino)-1,3,5-triazin-2-yl)benzonitrile] | 248 | – |
| C[C@H](O)C(=O)N1CC[C@@H](Oc2ccc(-c3ncnc(Nc4ccc(N5CCN(C6COC6)CC5)cc4)n3)cc2C#N)[C@H](F)C1 [Example 234, 2-(((3R,4R)-3-fluoro-1-((S)-2-hydroxypropanoyl)piperidin-4-yl)oxy)-5-(4-((4-(4-(oxetan-3-yl)piperazin-1-yl)phenyl)amino)-1,3,5-triazin-2-yl)benzonitrile] | 669 | – |
| C[C@H](O)C(=O)N1CC[C@H](Oc2ccc(-c3ncnc(Nc4ccc(N5CCN(C6COC6)CC5)cc4)n3)cc2C#N)[C@H](F)C1 [Example 238, 2-(((3R,4S)-3-fluoro-1-((8)-2-hydroxypropanoyl)piperidin-4-yl)oxy)-5-(4-((4-(4-(oxetan-3-yl)piperazin-1-yl)phenyl)amino)-1,3,5-triazin-2-yl)benzonitrile] | 445 | – |
| N#Cc1cc(-c2ncnc(Nc3ccc4c(c3)OC(F)(F)O4)n2)ccc1OC1CCOCC1 [Example 275, 5-(4-((2,2-difluorobenzo[d][1,3]dioxol-5-yl)amino)-1,3,5-triazin-2-yl)-2-((tetrahydro-2H-pyran-4-yl)oxy)benzonitrile] | – | 115 |
| N#Cc1cc(-c2ncnc(Nc3ccc(N4CCN(C5CCOCC5)CC4)cc3)n2)ccc1O[C@H]1CCN(C(=O)CO)C[C@H]1F [Example 306, 2-(((3R,4S)-3-fluoro-1-(2-hydroxyacetyl)piperidin-4-yl)oxy)-5-(4-((4-(4-(tetrahydro-2H-pyran-4-yl)piperazin-1-yl)phenyl)amino)-1,3,5-triazin-2-yl)benzonitrile] | – | 2 |
| C[C@H](O)C(=O)N1CC[C@H](Oc2ccc(-c3ncnc(Nc4ccc(C5CCN(C6COC6)CC5)cc4)n3)cc2C#N)[C@H](F)C1 [Example 311, 2-(((3R,4S)-3-fluoro-1-((S)-2-hydroxypropanoyl)piperidin-4-yl)oxy)-5-(4-((4-(1-(oxetan-3-yl)piperidin-4-yl)phenyl)amino)-1,3,5-triazin-2-yl)benzonitrile] | – | 3 |
| N#Cc1cc(-c2ncnc(Nc3ccc(N4CCN(C5COC5)CC4)cc3)n2)ccc1O[C@H]1CCN(C(=O)c2cc(Cl)n[nH]2)C[C@H]1F [Example 324, 2-(((3R,4S)-1-(3-chloro-1H-pyrazole-5-carbonyl)-3-fluoropiperidin-4-yl)oxy)-5-(4-((4-(4-(oxetan-3-yl)piperazin-1-yl)phenyl)amino)-1,3,5-triazin-2-yl)benzonitrile] | 237 | – |
| C[C@H](O)C(=O)N1CC[C@H](Oc2ccc(-c3ncnc(Nc4ccc(N5CCN(C6COC6)CC5)c(Cl)c4)n3)cc2C#N)[C@H](F)C1 [Example 378, 5-(4-((3-chloro-4-(4-(oxetan-3-yl)piperazin-1-yl)phenyl)amino)-1,3,5-triazin-2-yl)-2-(((3R,4S)-3-fluoro-1-((S)-2-hydroxypropanoyl)piperidin-4-yl)oxy)benzonitrile] | 173 | – |

Further lines, results first:

| IC50 [1] [nM] | IC50 [2] [nM] | SMILES |
| --- | --- | --- |
| 122 | – | N#Cc1cc(-c2ncnc(Nc3ccc(N4CCN(C5COC5)CC4)cc3)n2)ccc1OC1CCN(C(=O)CO)CC1(F)F (racemic) [Example 151, 2-((3,3-difluoro-1-(2-hydroxyacetyl)piperidin-4-yl)oxy)-5-(4-((4-(4-(oxetan-3-yl)piperazin-1-yl)phenyl)amino)-1,3,5-triazin-2-yl)benzonitrile] |
| 160 | – | CC1(C)CN(C(=O)CO)CCC1Oc1ccc(-c2ncnc(Nc3ccc(N4CCN(C5COC5)CC4)cc3)n2)cc1C#N (racemic) [Example 174, 2-((1-(2-hydroxyacetyl)-3,3-dimethylpiperidin-4-yl)oxy)-5-(4-((4-(4-(oxetan-3-yl)piperazin-1-yl)phenyl)amino)-1,3,5-triazin-2-yl)benzonitrile] |
| 75 | – | N#Cc1cc(-c2ncnc(Nc3ccc(N4CCN(C5COC5)CC4)cc3)n2)ccc1O[C@H]1CCN(C(=O)CO)CC1(F)F (single isomer, unassigned) [Example 152] |
| 56 | – | N#Cc1cc(-c2ncnc(Nc3ccc(N4CCN(C5COC5)CC4)cc3)n2)ccc1O[C@@H]1CCN(C(=O)CO)CC1(F)F (single isomer, unassigned) [Example 153] |
| 397 | – | CC1(C)CN(C(=O)CO)CC[C@@H]1Oc1ccc(-c2ncnc(Nc3ccc(N4CCN(C5COC5)CC4)cc3)n2)cc1C#N (single isomer, unassigned) [Example 175] |
| 133 | – | CC1(C)CN(C(=O)CO)CC[C@H]1Oc1ccc(-c2ncnc(Nc3ccc(N4CCN(C5COC5)CC4)cc3)n2)cc1C#N (single isomer, unassigned) [Example 176] |
